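Grown in 96-well plates, cells were treated for 48 hours with each compound at five concentrations. Insufficient inhibition: endpoint recorded as highest concentration tested. The concentration for 50% growth inhibition is given as GI50.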 Calls of active or inactive are those of the source. Rule as the data show it: active = GI50 up to about 1.1 µM and inactive = higher.
Key:
Test in all cases: DTP human tumour cell line panel, 48 h
U-251 = test system: U-251
HCC 2998 = test system: HCC 2998
MCF7 = test system: MCF7
HL-60 = test system: HL-60
UACC-62 = test system: UACC-62
OVCAR-3 = test system: OVCAR-3
SNB-19 = test system: SNB-19
LOX IMVI = test system: LOX IMVI
RPMI-8226 = test system: RPMI-8226
COLO 205 = test system: COLO 205
OVCAR-4 = test system: OVCAR-4
SK-MEL-28 = test system: SK-MEL-28
SW-620 = test system: SW-620
NCI-H522 = test system: NCI-H522
OVCAR-5 = test system: OVCAR-5
HCT-15 = test system: HCT-15
SF-268 = test system: SF-268
MOLT-4 = test system: MOLT-4
IGROV-1 = test system: IGROV-1
NCI-H226 = test system: NCI-H226

Structure (SMILES) | GI50 (U-251) | GI50 (HCC 2998) | GI50 (MCF7) | GI50 (HL-60) | GI50 (UACC-62) | GI50 (OVCAR-3) | GI50 (SNB-19) | GI50 (LOX IMVI) | GI50 (RPMI-8226) | GI50 (COLO 205) | GI50 (OVCAR-4) | GI50 (SK-MEL-28) | GI50 (SW-620) | GI50 (NCI-H522) | GI50 (OVCAR-5) | GI50 (HCT-15) [µM] | GI50 (SF-268) | GI50 (MOLT-4) | GI50 (IGROV-1) | GI50 (NCI-H226)
S=C(NCCCCCCNC(=S)Nc1c2ccccc2nc2ccccc12)Nc1c2ccccc2nc2ccccc12 | > 91.8 µM (inactive) | > 96.2 µM (inactive) | 49 µM (inactive) | 77.1 µM (inactive) | > 100 µM (inactive) | > 90.2 µM (inactive) | > 83 µM (inactive) | 72.4 µM (inactive) | 95.5 µM (inactive) | 50.5 µM (inactive) | 70 µM (inactive) | > 100 µM (inactive) | 52.8 µM (inactive) | 64.6 µM (inactive) | > 84.1 µM (inactive) | 76.4 | > 100 µM (inactive) | 32.4 µM (inactive) | > 81.5 µM (inactive) | 10.8 µM (inactive)
O=[N+]([O-])c1ccc(-n2nnc(C3=NCCCN3)c2-c2ccc(Cl)cc2)cc1 | > 100 µM (inactive) | > 100 µM (inactive) |  | 46.3 µM (inactive) | > 100 µM (inactive) | > 100 µM (inactive) | > 100 µM (inactive) | > 100 µM (inactive) | > 100 µM (inactive) | 30.5 µM (inactive) | > 100 µM (inactive) | 32.7 µM (inactive) | > 100 µM (inactive) | > 100 µM (inactive) | > 100 µM (inactive) | > 100 | > 100 µM (inactive) | 79.3 µM (inactive) | > 100 µM (inactive) | > 100 µM (inactive)
O=C1OCc2cccc3c2-c2c1cccc2C(=O)OC3 | > 100 µM (inactive) | > 100 µM (inactive) |  | > 100 µM (inactive) | > 100 µM (inactive) | > 100 µM (inactive) | > 100 µM (inactive) |  | > 100 µM (inactive) | > 100 µM (inactive) | > 100 µM (inactive) | > 100 µM (inactive) |  |  |  | > 100 | > 100 µM (inactive) | > 100 µM (inactive) | > 100 µM (inactive) | 
Cc1ccccc1NC(=O)C(=O)C(C1OC(=O)c2ccccc21)[N+](=O)[O-] (configuration not stated) | > 100 µM (inactive) | > 100 µM (inactive) |  | > 100 µM (inactive) | > 100 µM (inactive) |  | > 100 µM (inactive) | > 100 µM (inactive) | > 100 µM (inactive) | > 100 µM (inactive) | > 100 µM (inactive) | > 100 µM (inactive) | > 100 µM (inactive) | 56.9 µM (inactive) | > 100 µM (inactive) | > 100 | > 100 µM (inactive) | > 100 µM (inactive) | > 100 µM (inactive) | > 100 µM (inactive)
COC1/C=C/C=C(/C)Cc2cc(O)c(Cl)c(c2)N(C)C(=O)CC(OC(=O)C(C)C)C2(C)OC2C(C)C2CC1(O)NC(=O)O2 (configuration not stated) | < 0.01 µM (active) | < 0.01 µM (active) | < 0.01 µM (active) | < 0.01 µM (active) | < 0.01 µM (active) | < 0.01 µM (active) | < 0.01 µM (active) | < 0.01 µM (active) | < 0.01 µM (active) | < 0.01 µM (active) | < 0.01 µM (active) |  | < 0.01 µM (active) | < 0.01 µM (active) |  | < 0.01 | < 0.01 µM (active) | < 0.01 µM (active) | < 0.01 µM (active) | > 100 µM (inactive)
CC(C)(C)c1cc(C2COC(=O)COCCOCC(=O)OCCOCCO2)cc(C(C)(C)C)c1O (configuration not stated) | 36.7 µM (inactive) | 23 µM (inactive) | > 100 µM (inactive) | 39.2 µM (inactive) | 47.9 µM (inactive) | > 100 µM (inactive) | > 100 µM (inactive) | 18.7 µM (inactive) | > 100 µM (inactive) | 32.5 µM (inactive) | > 100 µM (inactive) | 37.2 µM (inactive) | 53.6 µM (inactive) | > 47 µM (inactive) | 21.7 µM (inactive) | 50.2 | 34 µM (inactive) | > 100 µM (inactive) | 72.8 µM (inactive) | > 100 µM (inactive)
CCC(/C=C/c1ccccc1)=N\Nc1ccc(Cl)c(Cl)c1 | 3.22 µM (inactive) | 25.9 µM (inactive) | 28.7 µM (inactive) | 27.8 µM (inactive) | 13.9 µM (inactive) | 25.7 µM (inactive) | 52.1 µM (inactive) | 22.8 µM (inactive) | 19.1 µM (inactive) | 24.9 µM (inactive) |  | 48.1 µM (inactive) | 33 µM (inactive) | 18.5 µM (inactive) | 66.1 µM (inactive) | 29.7 | 36.3 µM (inactive) | 31 µM (inactive) | 5.14 µM (inactive) | 21.5 µM (inactive)
N#Cc1c(Cl)c2cccnc2n2c1nc1ccccc12 | 4.28 µM (inactive) | 3.85 µM (inactive) | 2.71 µM (inactive) | 0.507 µM (active) | 3.96 µM (inactive) | 2.72 µM (inactive) | 15.8 µM (inactive) | 1.66 µM (inactive) | 1.78 µM (inactive) | 1.99 µM (inactive) | 2.66 µM (inactive) | 3.64 µM (inactive) | 1.87 µM (inactive) | 1.17 µM (inactive) | 14.2 µM (inactive) | 2.04 | 2.66 µM (inactive) | 2.04 µM (inactive) | 1.41 µM (inactive) | 2.93 µM (inactive)
Cc1ccc(C(=O)N/N=C(\N=N\c2ccc([N+](=O)[O-])cc2)c2ccc(N(CCC#N)CCC#N)cc2C)cc1 | > 100 µM (inactive) | 54.1 µM (inactive) | 83.6 µM (inactive) | 30.2 µM (inactive) |  | 39.6 µM (inactive) | > 100 µM (inactive) | 60.8 µM (inactive) | > 100 µM (inactive) | 50 µM (inactive) | 99.8 µM (inactive) | 97.1 µM (inactive) | > 100 µM (inactive) |  | > 100 µM (inactive) | > 100 | > 100 µM (inactive) | 57.3 µM (inactive) | 66.8 µM (inactive) | 31.3 µM (inactive)
COc1ccccc1-c1cc(O)c2c(C)ccnc2n1 |  | 64.9 µM (inactive) | 26.5 µM (inactive) |  | 42.9 µM (inactive) |  | 26.3 µM (inactive) | 37.9 µM (inactive) | 59.8 µM (inactive) | 19.5 µM (inactive) | 46.2 µM (inactive) | 84.3 µM (inactive) | 6.1 µM (inactive) | 15.8 µM (inactive) | 52.4 µM (inactive) | 28.4 | 45.5 µM (inactive) | 31.7 µM (inactive) | > 100 µM (inactive) | 15.8 µM (inactive)
CC(C)N/C(N)=N/C#N |  | > 100 µM (inactive) |  | > 100 µM (inactive) | > 100 µM (inactive) | > 100 µM (inactive) | > 100 µM (inactive) | > 100 µM (inactive) | > 100 µM (inactive) | > 100 µM (inactive) | > 100 µM (inactive) |  | > 100 µM (inactive) | > 100 µM (inactive) | > 100 µM (inactive) | > 100 | > 100 µM (inactive) | > 100 µM (inactive) | > 100 µM (inactive) | > 100 µM (inactive)
COC(=O)N1CC2C3C4CC(C(c5ccccc5)=C4c4ccccc4)C3C21 (configuration not stated) | 13.2 µM (inactive) | 16.3 µM (inactive) | 20 µM (inactive) |  | 13.2 µM (inactive) | 15.5 µM (inactive) | 21.1 µM (inactive) | 12.2 µM (inactive) | 8.59 µM (inactive) | 23.1 µM (inactive) | 13.1 µM (inactive) | 19.9 µM (inactive) | 18.1 µM (inactive) |  | 27.7 µM (inactive) |  | 16.3 µM (inactive) | 12.5 µM (inactive) | 17.5 µM (inactive) | 14 µM (inactive)
CCOC(=O)C[n+]1ccc2c([nH]c3cc(OC)ccc32)c1C | > 77.4 µM (inactive) | > 100 µM (inactive) | > 95.5 µM (inactive) | > 75.7 µM (inactive) | > 100 µM (inactive) | > 79.1 µM (inactive) | > 100 µM (inactive) | 71.8 µM (inactive) | > 100 µM (inactive) | > 71.6 µM (inactive) | > 100 µM (inactive) | > 100 µM (inactive) | > 100 µM (inactive) | 68.2 µM (inactive) | > 100 µM (inactive) | > 100 | > 100 µM (inactive) | > 67 µM (inactive) | > 100 µM (inactive) | 36.8 µM (inactive)
CO/N=C(\C)c1ccc(Nc2nc3ccccc3c3occc23)cc1 | 16.9 µM (inactive) | 16.1 µM (inactive) | 13.8 µM (inactive) | 26.5 µM (inactive) | 12.1 µM (inactive) | 30.2 µM (inactive) | 15.5 µM (inactive) | 15.3 µM (inactive) | 16.9 µM (inactive) | 14.5 µM (inactive) |  |  |  | 10.8 µM (inactive) | 16.3 µM (inactive) | 15.1 | 16.4 µM (inactive) | 17.1 µM (inactive) | 16.1 µM (inactive) | 8.18 µM (inactive)
BrC1=CN2C[n+]3cc(Br)c4ccccc4c3N=C2c2ccccc21 | 4.54 µM (inactive) |  | 4.42 µM (inactive) | 22.5 µM (inactive) | 5.58 µM (inactive) | 2.88 µM (inactive) | 6.67 µM (inactive) | 12.4 µM (inactive) | 10.8 µM (inactive) | 10.3 µM (inactive) | 7.76 µM (inactive) | 2.26 µM (inactive) | 12.3 µM (inactive) | 12.3 µM (inactive) | 17.9 µM (inactive) | 58.6 | 8.55 µM (inactive) | 11 µM (inactive) | 7.05 µM (inactive) | 
